What was measured:
rats = assay: Animal toxicology, rats; assay type: in vivo
Method: The safety of mavacamten has been evaluated in rats and dogs at multiple dose levels (0.06 to 10 mg/kg/day) orally. […] Plasma exposures (AUC) at the NOAEL in rats and dogs were 0.1 and 0.3 times, respectively, human exposure (AUC) at the MRHD.

MATE1 = MATE1 (Homo sapiens, UniProt Q96FL8); assay: In vitro transporter inhibition; assay type: in vitro ADME
rasH2 transgenic mouse = assay: 6-month rasH2 transgenic mouse carcinogenicity study; assay type: in vivo
human lymphocyte = assay: Human in vitro lymphocyte electrogenicity assay; assay type: cell-based
Description: Mavacamten was not genotoxic in a bacterial reverse mutation test (Ames test), a human in vitro lymphocyte […] assay, or a rat in vivo micronucleus assay.

MATE2-K = MATE2-K (Homo sapiens, UniProt Q86VL8); assay: In vitro transporter inhibition; assay type: in vitro ADME
healthy volunteers = assay: Cardiac electrophysiology (QTc) in healthy volunteers; assay type: in vivo, human
Description: The mechanism of the QT prolongation effect is not known.

[1] = system: adults with symptomatic NYHA class II and III obstructive HCM; assay: EXPLORER-HCM Phase 3, double-blind, randomized, placebo-controlled trial; assay type: in vivo, human
Method: The safety of MAVACAMTEN was evaluated in EXPLORER-HCM, a Phase 3, double-blind, randomized, placebo-controlled trial. Of the 251 adults with obstructive HCM, 123 patients were treated with MAVACAMTEN 2.5-15 mg daily and 128 were treated with placebo.
The efficacy of MAVACAMTEN was evaluated in EXPLORER-HCM (NCT-03470545) a Phase 3, double-blind, randomized, placebo-controlled, multicenter, international, parallel-group trial in 251 adults with symptomatic NYHA class II and III obstructive HCM, LVEF ≥55%, and Valsalva LVOT peak gradient ≥50 mmHg at rest or with provocation.
Patients on dual therapy with beta blocker and calcium channel blocker treatment or monotherapy with disopyramide or ranolazine were excluded. Patients with a known infiltrative or storage disorder causing cardiac hypertrophy that mimicked obstructive HCM, such as Fabry disease, amyloidosis, or Noonan syndrome with left ventricular hypertrophy, were also excluded.
Patients were randomized in a 1:1 ratio to receive either a starting dose of 5 mg of MAVACAMTEN or placebo once daily for 30 weeks. Treatment assignment was stratified by baseline NYHA functional class, baseline use of beta blockers, and type of ergometer (treadmill or exercise bicycle).
All patients were initiated on MAVACAMTEN 5 mg (or matching placebo) once daily, and the dose was periodically adjusted to optimize patient response (decrease in LVOT gradient with Valsalva maneuver) and maintain LVEF ≥50%. The dose was also informed by plasma concentrations of MAVACAMTEN.
The primary composite functional endpoint, assessed at 30 weeks, was defined as the proportion of patients who achieved either improvement of […] (pVO2) by ≥1.5 mL/kg/min plus improvement in NYHA class by at least 1 or improvement of pVO2 by ≥3.0 mL/kg/min plus no worsening in NYHA class.
The treatment effects of MAVACAMTEN on LVOT obstruction, functional capacity, and health status were assessed by change from baseline through Week 30 in post-exercise LVOT peak gradient, change in pVO2, proportion of patients with improvement in NYHA class, Kansas City Cardiomyopathy Questionnaire-23 (KCCQ-23) Clinical Summary Score (CSS), and Hypertrophic Cardiomyopathy Symptom Questionnaire (HCMSQ) Shortness of Breath (SoB) domain score.
Missing data were not imputed to summarize the baseline and change from baseline to Week 30 values. Difference in mean change from baseline between treatment groups was estimated using a mixed model for repeated measures.

pregnant rats = assay: Pre/postnatal development study; assay type: in vivo, rat; conditions: 0.3 to 1.5 mg/kg/day
Method: (§1) In a pre/postnatal development study, mavacamten was administered orally to pregnant rats (0.3, to 1.5 mg/kg/day) from gestation Day 6 to lactation/post-partum Day 20.

[2] = Pre/postnatal development study; assay type: in vivo, rat; conditions: female, rat, in vivo; oral, gestation Day 6 to lactation/post-partum Day 20; highest dosage level tested; read-out: no-observed-adverse-effect level (NOAEL)
Method: as §1

CYP2C19 = CYP2C19 (Homo sapiens, UniProt P33261); assay: Metabolism, contribution of CYP2C19; assay type: in vitro ADME
Description: Mavacamten is extensively metabolized, primarily through CYP2C19 (74%), CYP3A4 (18%), and CYP2C9 (8%).
Statement of Purpose: Mavacamten is a first-in-class, selective, allosteric, and reversible cardiac myosin inhibitor in development for the treatment of adults with symptomatic obstructive hypertrophic cardiomyopathy. Mavacamten is hepatically metabolized predominantly via CYP2C19 (74%), CYP3A4 (18%) and CYP2C9 (8%). A previously developed fit-for-purpose physiologically based pharmacokinetic (PBPK) model was applied to explore the induction effects of a strong CYP3A4/CYP2C19 inducer-rifampin, as well as a strong CYP3A4 inducer-carbamazepine, on mavacamten exposures.

MATE1, sequence (Q96FL8 whole entry): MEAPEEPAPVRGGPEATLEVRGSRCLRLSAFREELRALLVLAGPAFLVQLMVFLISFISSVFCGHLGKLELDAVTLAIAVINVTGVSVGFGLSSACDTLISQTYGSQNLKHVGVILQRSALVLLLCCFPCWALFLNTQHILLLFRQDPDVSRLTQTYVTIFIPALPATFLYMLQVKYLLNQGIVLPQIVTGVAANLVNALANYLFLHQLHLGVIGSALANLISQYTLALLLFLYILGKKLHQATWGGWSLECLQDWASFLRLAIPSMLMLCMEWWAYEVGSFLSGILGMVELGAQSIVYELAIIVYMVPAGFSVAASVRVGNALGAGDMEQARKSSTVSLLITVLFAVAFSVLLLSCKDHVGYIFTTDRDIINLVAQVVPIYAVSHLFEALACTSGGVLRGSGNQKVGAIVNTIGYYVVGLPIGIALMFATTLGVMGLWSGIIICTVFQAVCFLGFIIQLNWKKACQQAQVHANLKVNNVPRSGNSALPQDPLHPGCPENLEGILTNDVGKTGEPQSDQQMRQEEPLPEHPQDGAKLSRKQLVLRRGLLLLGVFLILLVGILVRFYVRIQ
MATE2-K, sequence (Q86VL8 1-566 isoform Q86VL8-3): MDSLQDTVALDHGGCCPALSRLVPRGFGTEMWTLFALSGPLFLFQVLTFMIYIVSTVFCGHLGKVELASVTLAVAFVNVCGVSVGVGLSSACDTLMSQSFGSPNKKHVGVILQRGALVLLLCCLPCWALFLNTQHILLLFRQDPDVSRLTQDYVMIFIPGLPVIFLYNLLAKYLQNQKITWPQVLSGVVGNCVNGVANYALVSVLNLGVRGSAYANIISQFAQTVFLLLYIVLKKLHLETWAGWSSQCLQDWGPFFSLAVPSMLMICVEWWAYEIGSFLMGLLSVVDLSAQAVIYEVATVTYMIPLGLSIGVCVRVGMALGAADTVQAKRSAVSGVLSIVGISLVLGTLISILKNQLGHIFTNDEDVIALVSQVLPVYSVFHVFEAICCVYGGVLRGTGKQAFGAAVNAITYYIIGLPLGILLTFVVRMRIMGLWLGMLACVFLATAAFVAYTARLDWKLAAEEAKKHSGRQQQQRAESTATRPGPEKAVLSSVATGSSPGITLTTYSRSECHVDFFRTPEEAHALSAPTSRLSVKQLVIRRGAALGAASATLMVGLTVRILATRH
CYP2C19, sequence (P33261 whole entry): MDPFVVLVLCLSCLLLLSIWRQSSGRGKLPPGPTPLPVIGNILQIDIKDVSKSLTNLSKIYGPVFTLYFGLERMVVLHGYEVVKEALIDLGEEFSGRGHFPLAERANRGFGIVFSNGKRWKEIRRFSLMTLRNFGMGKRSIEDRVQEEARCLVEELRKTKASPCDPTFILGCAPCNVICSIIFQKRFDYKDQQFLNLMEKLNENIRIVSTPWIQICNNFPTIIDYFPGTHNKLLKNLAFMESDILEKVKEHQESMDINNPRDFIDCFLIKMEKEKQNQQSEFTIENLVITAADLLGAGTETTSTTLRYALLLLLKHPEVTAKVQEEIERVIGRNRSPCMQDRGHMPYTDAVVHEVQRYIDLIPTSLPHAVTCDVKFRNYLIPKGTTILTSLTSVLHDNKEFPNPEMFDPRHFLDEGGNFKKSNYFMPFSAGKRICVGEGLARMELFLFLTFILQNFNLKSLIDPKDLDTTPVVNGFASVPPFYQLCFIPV

CC(C)n1c(=O)cc(N[C@@H](C)c2ccccc2)[nH]c1=O [mavacamten, (S)-3-Isopropyl-6-((1-phenylethyl)amino)pyrimidine-2,4(1H,3H)-dione]
Plasma exposure (AUC) at the NOAEL vs human exposure at the MRHD (rats): 0.1 times
Inhibition of MATE1 (MATE1): does not inhibit
Carcinogenicity (rasH2 transgenic mouse; 6-month, up to 2.0 mg/kg/day in males and 3.0 mg/kg/day in females): no evidence of carcinogenicity
Exposure (AUC) compared to humans at the MRHD (rasH2 transgenic mouse; females, 3.0 mg/kg/day): 3 fold
Exposure (AUC) compared to humans at the MRHD (rasH2 transgenic mouse; males, 2.0 mg/kg/day): 1.8 fold
Genotoxicity, human in vitro lymphocyte electrogenicity assay (human lymphocyte): not genotoxic
Inhibition of MATE2-K (MATE2-K): does not inhibit
QTc interval effect, multiple doses (healthy volunteers; doses up to 25 mg once daily): concentration-dependent increase in the QTc interval
QTc interval effect, single-dose studies (healthy volunteers; similar exposures): No acute QTc changes
Subgroup analysis of the primary composite functional endpoint ([1]; FIG. 17): consistently favored MAVACAMTEN across all subgroups analyzed
Adverse reaction: syncope, patients ([1]; MAVACAMTEN 2.5-15 mg daily, N=123, placebo 2%): 6%
Adverse reaction: dizziness, patients ([1]; MAVACAMTEN 2.5-15 mg daily, N=123, placebo 18%): 27%
Improvement across secondary endpoints vs placebo ([1]; Week 30): greater improvement compared to the placebo group across all secondary endpoints
NYHA Class improved ≥1, difference vs placebo ([1]; Week 30): 34%
Total responders, difference vs placebo (95% CI) ([1]; Week 30): 19% (9, 30)
pVO2 ≥1.5 mL/kg/min and decreased NYHA, difference vs placebo (95% CI) ([1]; Week 30): 19% (9, 30)
pVO2 ≥3 mL/kg/min and NYHA not increased, difference vs placebo (95% CI) ([1]; Week 30): 13% (3, 22)
Change from baseline pVO2 ≥1.5 mL/kg/min and decreased NYHA, number ([1]; Week 30, N=123): 41
Change from baseline pVO2 ≥3 mL/kg/min and NYHA not increased, number ([1]; Week 30, N=123): 29
Number with NYHA Class improved ≥1 ([1]; Week 30, N=123): 80
Primary composite functional endpoint, total responders, number ([1]; Week 30, N=123): 45
Primary composite functional endpoint, total responders, percent ([1]; Week 30, N=123, placebo 17%): 37%
KCCQ-23 CSS, change from baseline, mean ([1]; Week 30, n=99, placebo 4): 14
HCMSQ SoB, change from baseline, mean ([1]; Week 30, n=108, placebo −1): −3
KCCQ-23 PL, change from baseline, mean ([1]; Week 30, placebo 4): 15
KCCQ-23 TSS, change from baseline, mean ([1]; Week 30, placebo 5): 12
Change from baseline pVO2 ≥3 mL/kg/min and NYHA not increased, percent ([1]; Week 30, placebo 11%): 23%
Change from baseline pVO2 ≥1.5 mL/kg/min and decreased NYHA, percent ([1]; Week 30, placebo 14%): 33%
Percent with NYHA Class improved ≥1 ([1]; Week 30, placebo 31%): (65%)
LVEF outcome after interruption in patients with LVEF <50% ([1]; all 7 patients): LVEF recovered following interruption
Benefit by background beta blocker therapy ([1]; attenuated improvement in pVO2): smaller in patients on background beta blocker therapy
Post-Exercise LVOT gradient, difference vs placebo ([1]; baseline to Week 30): −35 mmHg
pVO2, difference vs placebo ([1]; baseline to Week 30): 1.4 mL/kg/min
Change in pVO2, mean ([1]; baseline to Week 30, placebo −0.1): 1.4 mL/kg/min
Change in Post-Exercise LVOT gradient, mean ([1]; baseline to Week 30, placebo −10): −47 mmHg
patients who temporarily interrupted their dose due to LVEF <50% ([1]; in vivo): Three
patients whose LVEF reduction to <50% was asymptomatic ([1]; of the 7 MAVACAMTEN patients): 3
mean (SD) absolute change from baseline in LVEF ([1]; over the 30-week treatment period, placebo 0% (7)): -4% (8)
Syncope leading to discontinuation, patients ([1]; patients receiving MAVACAMTEN): 0.8%
onset of reduction in LVOT gradient ([1]; sustained throughout the 30-week trial): reductions in mean resting and provoked (Valsalva) LVOT gradient by Week 4
patients with reversible reductions in LVEF to <50%, number ([1]; while on treatment, N=123): 7
patients with reversible reductions in LVEF to <50%, percent ([1]; while on treatment, placebo 2%): 6%
Effects in dams or offspring (pregnant rats): No adverse effects were observed in the dams or offspring
NOAEL [2]: 1.5 mg/kg/day
Metabolism through CYP2C19 (CYP2C19): 74%

Source: patent US20250360132A1, “METHODS OF ADMINISTERING MYOSIN INHIBITORS” (MYOKARDIA, INC., priority 2022, published 2025)
